Experimental data published in the supplement of paper PMC10307832.

What was measured:
Assay in all cases: relative viability (nuclei count vs DMSO), 5 days (fraction); higher = more cells survive
COR-L23 = test system: COR-L23
In short: (§1)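 Nuclei were stained with Hoechst during a one-step fixation (final 0.05% Triton X-100, 1% formaldehyde, 1 ug/ml Hoechst) carried out 5 days after dosing, then counted on 4× images. The cells, lung cancer lines in 1536-well plates, had been dosed by pin tool the day after seeding with one drug alone or a fixed anchor-drug dose plus five library-drug doses (not always all listed) in √10 steps. Relative viability is the nuclei count in treated wells divided by that in vehicle wells, and each value is the median of duplicate plates.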

SK-MES-1 = test system: SK-MES-1
In short: as §1

NCI-H3122 = test system: NCI-H3122
In short: as §1

HCC-827 = test system: HCC-827
In short: as §1

LU99A = test system: LU99A
In short: as §1

LC-2-ad = test system: LC-2-ad
In short: as §1

COR-L 105 = test system: COR-L 105
In short: as §1

LCLC-97TM1 = test system: LCLC-97TM1
In short: as §1

SK-LU-1 = test system: SK-LU-1
In short: as §1

NCI-H596 = test system: NCI-H596
In short: as §1

PC-3 [JPC-3] = test system: PC-3 [JPC-3]
In short: as §1

RERF-LC-KJ = test system: RERF-LC-KJ
In short: as §1

NCI-H1993 = test system: NCI-H1993
In short: as §1

NCI-H2342 = test system: NCI-H2342
In short: as §1

EKVX = test system: EKVX
In short: as §1

NCI-H1944 = test system: NCI-H1944
In short: as §1

NCI-H1915 = test system: NCI-H1915
In short: as §1

HCC-366 = test system: HCC-366
In short: as §1

NCI-H1755 = test system: NCI-H1755
In short: as §1

NCI-H522 = test system: NCI-H522
In short: as §1

HCC-15 = test system: HCC-15
In short: as §1

BEN = test system: BEN
In short: as §1

In the case of `COCC1(CO)C(=O)C2CCN1CC2` (stereo unspecified) [PRIMA-1MET] + Nc1nc2[nH]cc(CCc3ccc(C(=O)N[C@@H](CCC(=O)O)C(=O)O)cc3)c2c(=O)[nH]1 [Pemetrexed] (partner 0.2 µM), the relative viability (COR-L23; first compound 0.2 µM) is reported as 0.184, the relative viability (COR-L23; first compound 0.6325 µM) is reported as 0.199 and the relative viability (COR-L23; first compound 2 µM) is reported as 0.191. For the same compound, the relative viability (COR-L23; first compound 6.325 µM) was 0.192, the relative viability (COR-L23; first compound 20 µM) was 0.0784 and the relative viability (SK-MES-1; first compound 0.2 µM) was 1.08. It also gave a relative viability (SK-MES-1; first compound 0.6325 µM) of 0.896, a relative viability (SK-MES-1; first compound 2 µM) of 0.901 and a relative viability (SK-MES-1; first compound 6.325 µM) of 0.92. For the same compound, the relative viability (SK-MES-1; first compound 20 µM) was 0.929, the relative viability (NCI-H3122; first compound 0.2 µM) was 0.18 and the relative viability (NCI-H3122; first compound 0.6325 µM) was 0.199. It also gave a relative viability (NCI-H3122; first compound 2 µM) of 0.206, a relative viability (NCI-H3122; first compound 6.325 µM) of 0.192 and a relative viability (NCI-H3122; first compound 20 µM) of 0.206. For the same compound, the relative viability (HCC-827; first compound 0.2 µM) was 0.221, the relative viability (HCC-827; first compound 0.6325 µM) was 0.144 and the relative viability (HCC-827; first compound 2 µM) was 0.239. It also gave a relative viability (HCC-827; first compound 6.325 µM) of 0.554, a relative viability (HCC-827; first compound 20 µM) of 0.275 and a relative viability (LU99A; first compound 0.2 µM) of 0.191. It also gave a relative viability (LU99A; first compound 0.6325 µM) of 0.161, a relative viability (LU99A; first compound 2 µM) of 0.201 and a relative viability (LU99A; first compound 6.325 µM) of 0.179. The relative viability (LU99A; first compound 20 µM) was 0.187, the relative viability (LC-2-ad; first compound 0.2 µM) was 0.26 and the relative viability (LC-2-ad; first compound 0.6325 µM) was 0.301. For the same compound, the relative viability (LC-2-ad; first compound 2 µM) was 0.268, the relative viability (LC-2-ad; first compound 6.325 µM) was 0.273 and the relative viability (LC-2-ad; first compound 20 µM) was 0.259. It also gave a relative viability (COR-L 105; first compound 0.2 µM) of 1.3, a relative viability (COR-L 105; first compound 0.6325 µM) of 1.17 and a relative viability (COR-L 105; first compound 2 µM) of 1.22. The relative viability (COR-L 105; first compound 6.325 µM) was 1.1, the relative viability (COR-L 105; first compound 20 µM) was 0.229 and the relative viability (LCLC-97TM1; first compound 0.2 µM) was 0.193. The relative viability (LCLC-97TM1; first compound 0.6325 µM) was 0.198, the relative viability (LCLC-97TM1; first compound 2 µM) was 0.182 and the relative viability (LCLC-97TM1; first compound 6.325 µM) was 0.197. For the same compound, the relative viability (LCLC-97TM1; first compound 20 µM) was 0.21, the relative viability (SK-LU-1; first compound 0.2 µM) was 1.01 and the relative viability (SK-LU-1; first compound 0.6325 µM) was 1.12. For the same compound, the relative viability (SK-LU-1; first compound 2 µM) was 1.01, the relative viability (SK-LU-1; first compound 6.325 µM) was 0.955 and the relative viability (SK-LU-1; first compound 20 µM) was 0.652. For the same compound, the relative viability (NCI-H596; first compound 0.2 µM) was 0.553, the relative viability (NCI-H596; first compound 0.6325 µM) was 0.481 and the relative viability (NCI-H596; first compound 2 µM) was 0.531. It also gave a relative viability (NCI-H596; first compound 6.325 µM) of 0.495, a relative viability (NCI-H596; first compound 20 µM) of 0.176 and a relative viability (PC-3 [JPC-3]; first compound 0.2 µM) of 1.06. For the same compound, the relative viability (PC-3 [JPC-3]; first compound 0.6325 µM) was 0.975, the relative viability (PC-3 [JPC-3]; first compound 2 µM) was 1.04 and the relative viability (PC-3 [JPC-3]; first compound 6.325 µM) was 1.14. The relative viability (PC-3 [JPC-3]; first compound 20 µM) was 1.04, the relative viability (RERF-LC-KJ; first compound 0.2 µM) was 0.49 and the relative viability (RERF-LC-KJ; first compound 0.6325 µM) was 0.484. It also gave a relative viability (RERF-LC-KJ; first compound 2 µM) of 0.472, a relative viability (RERF-LC-KJ; first compound 6.325 µM) of 0.495 and a relative viability (RERF-LC-KJ; first compound 20 µM) of 0.472. For the same compound, the relative viability (NCI-H1993; first compound 0.2 µM) was 0.592, the relative viability (NCI-H1993; first compound 2 µM) was 0.592 and the relative viability (NCI-H1993; first compound 6.325 µM) was 0.534. For the same compound, the relative viability (NCI-H1993; first compound 20 µM) was 0.557, the relative viability (NCI-H2342; first compound 0.2 µM) was 0.789 and the relative viability (NCI-H2342; first compound 0.6325 µM) was 0.852. For the same compound, the relative viability (NCI-H2342; first compound 6.325 µM) was 0.691, the relative viability (NCI-H2342; first compound 20 µM) was 0.753 and the relative viability (EKVX; first compound 0.2 µM) was 0.448. For the same compound, the relative viability (EKVX; first compound 2 µM) was 0.385, the relative viability (EKVX; first compound 6.325 µM) was 0.447 and the relative viability (EKVX; first compound 20 µM) was 0.385. The relative viability (NCI-H1944; first compound 0.2 µM) was 0.738, the relative viability (NCI-H1944; first compound 0.6325 µM) was 0.555 and the relative viability (NCI-H1944; first compound 2 µM) was 0.535. For the same compound, the relative viability (NCI-H1944; first compound 6.325 µM) was 0.519, the relative viability (NCI-H1944; first compound 20 µM) was 0.655 and the relative viability (NCI-H1915; first compound 0.2 µM) was 0.54. The relative viability (NCI-H1915; first compound 0.6325 µM) was 0.522, the relative viability (NCI-H1915; first compound 2 µM) was 0.466 and the relative viability (NCI-H1915; first compound 6.325 µM) was 0.511. For the same compound, the relative viability (NCI-H1915; first compound 20 µM) was 0.467, the relative viability (HCC-366; first compound 0.2 µM) was 0.187 and the relative viability (HCC-366; first compound 0.6325 µM) was 0.203. It also gave a relative viability (HCC-366; first compound 2 µM) of 0.156, a relative viability (HCC-366; first compound 6.325 µM) of 0.184 and a relative viability (HCC-366; first compound 20 µM) of 0.0889. The relative viability (NCI-H1755; first compound 0.2 µM) was 0.465, the relative viability (NCI-H1755; first compound 0.6325 µM) was 0.388 and the relative viability (NCI-H1755; first compound 2 µM) was 0.406. For the same compound, the relative viability (NCI-H1755; first compound 6.325 µM) was 0.333, the relative viability (NCI-H1755; first compound 20 µM) was 0.373 and the relative viability (NCI-H522; first compound 0.2 µM) was 0.789. The relative viability (NCI-H522; first compound 0.6325 µM) was 0.927, the relative viability (NCI-H522; first compound 2 µM) was 1.01 and the relative viability (NCI-H522; first compound 6.325 µM) was 0.946. For the same compound, the relative viability (NCI-H522; first compound 20 µM) was 0.423, the relative viability (HCC-15; first compound 0.2 µM) was 0.213 and the relative viability (HCC-15; first compound 0.6325 µM) was 0.214. For the same compound, the relative viability (HCC-15; first compound 2 µM) was 0.212, the relative viability (HCC-15; first compound 6.325 µM) was 0.21 and the relative viability (HCC-15; first compound 20 µM) was 0.217. For the same compound, the relative viability (BEN; first compound 0.2 µM) was 0.898, the relative viability (BEN; first compound 0.6325 µM) was 0.421 and the relative viability (BEN; first compound 6.325 µM) was 0.801. For the same compound, the relative viability (BEN; first compound 20 µM) was 0.834.
